The values that follow come from ChEMBL document CHEMBL3044901, “Synthesis and insecticidal activity of N-oxydihydropyrroles: 4-hydroxy-3-mesityl-5,5-dimethyl derivatives with various substituents at the 1-position” (Biosci Biotechnol Biochem, 2002).

As usually defined, the mortality is the share of the test organisms that died.

Data set [1] relates to Nilaparvata lugens. Put plainly: Insecticidal activity against Nilaparvata lugens (brown planthopper) third-instar larvae reared on rice seedlings assessed as insect mortality at 10 ppm measured 5 days post compound treatment by systemic exposure test. The class given is functional. Conditions: 120 h.
The next data set deals with Oryza sativa. Put plainly: Phytotoxicity against Oryza sativa exposed to compound spraying at […] measured 7 days post compound treatment by post-emergence glasshouse test. It counts as organism-based. Conditions: in vivo, other, 168 h.
Data set [2] relates to Nilaparvata lugens. Put plainly: Insecticidal activity against Nilaparvata lugens (brown planthopper) third-instar larvae contacted with rice stems pre-exposed to compound assessed as insect mortality at 10 ppm measured 5 days post insect release by contact exposure test. The class given is functional. Conditions: 120 h.
The test system of data set [3] is Nilaparvata lugens. Put plainly: Insecticidal activity against Nilaparvata lugens (brown planthopper) third-instar larvae contacted with rice stems pre-exposed to compound assessed as insect mortality at 1 ppm measured 5 days post insect release by contact exposure test. The class given is functional. The following applies: 120 h.
Data set [4] concerns Nilaparvata lugens. Put plainly: Insecticidal activity against Nilaparvata lugens (brown planthopper) third-instar larvae reared on rice seedlings assessed as insect mortality at 1 ppm measured 5 days post compound treatment by systemic exposure test. It counts as functional. Conditions: 120 h.
In the next data set the test system is Cucumis sativus. Put plainly: Phytotoxicity against Cucumis sativus (cucumber) exposed to compound spraying at […] measured 7 days post compound treatment by post-emergence glasshouse test. The class given is organism-based. The following applies: in vivo, other, 168 h.
Data set [5] concerns Myzus persicae. Put plainly: Insecticidal activity against Myzus persicae (green peach aphid) infested Brassica campestris stems followed by leaf exposure to test compound spraying assessed as insect mortality at 1 ppm measured 5 days post compound treatment by contact exposure test. The class given is functional. Conditions: 120 h.
Data set [6] has as its system Myzus persicae. Put plainly: Insecticidal activity against Myzus persicae (green peach aphid) infested Brassica campestris stems followed by leaf exposure to test compound spraying assessed as insect mortality at 10 ppm measured 5 days post compound treatment by contact exposure test. The class given is functional. The following applies: 120 h.
The test system of data set [7] is Myzus persicae. Put plainly: Insecticidal activity against Myzus persicae (green peach aphid) infested Brassica campestris stems followed by cut stem exposure to test compound assessed as insect mortality at 1 ppm measured 5 days post compound treatment by systemic exposure test. The class given is functional. Conditions: 120 h.
For data set [8], the system named is Myzus persicae. Put plainly: Insecticidal activity against Myzus persicae (green peach aphid) infested Brassica campestris stems followed by cut stem exposure to test compound assessed as insect mortality at 0.1 ppm measured 5 days post compound treatment by systemic exposure test. The class given is functional. Conditions: 120 h.

`Cc1cc(C)c(C2=C(O)C(C)(C)N(OCc3ccccc3)C2=O)c(C)c1`: the mortality at 10 ppm with Nilaparvata lugens [1] was 100%; in the data set with Nilaparvata lugens [2], 0%; in the data set with Myzus persicae [6], 0%. Also, the Phytotoxicity with Oryza sativa was determined as 30%; in the data set with Cucumis sativus, 0%. Moreover, the mortality at 1 ppm in the data set with Nilaparvata lugens [3] amounted to 30%; with Nilaparvata lugens [4], 30%; in the data set on Myzus persicae [5] it was 0%; in the data set on Myzus persicae [7], 0%. For the same compound, in the data set with Myzus persicae [8], the mortality at 0.1 ppm worked out at 0%.
Turning to `COCON1C(=O)C(c2c(C)cc(C)cc2C)=C(O)C1(C)C`, the mortality at 10 ppm in the data set on Nilaparvata lugens [1], in the data set with Nilaparvata lugens [2] and with Myzus persicae [6] was 100% throughout. The Phytotoxicity in the data set on Oryza sativa worked out at 100%; in the data set on Cucumis sativus, 90%. Also, the mortality at 1 ppm came out at 60% in the data set with Nilaparvata lugens [3], 60% in the data set on Nilaparvata lugens [4], 0% in the data set with Myzus persicae [5] and 100% with Myzus persicae [7]. The mortality at 0.1 ppm with Myzus persicae [8] was 100%.
In the case of `CCOCON1C(=O)C(c2c(C)cc(C)cc2C)=C(OC(=O)CC(C)(C)C)C1(C)C`, the mortality at 10 ppm in the data set on Nilaparvata lugens [1], in the data set with Nilaparvata lugens [2] and with Myzus persicae [6] was 100% each time. Besides, the Phytotoxicity was 0% with Oryza sativa and 60% with Cucumis sativus. For the same compound, the mortality at 1 ppm in the data set with Nilaparvata lugens [3] stood at 100%; in the data set on Nilaparvata lugens [4] it was 0%; in the data set on Myzus persicae [5], 100%; in the data set with Myzus persicae [7], 100%. Further, in the data set on Myzus persicae [8], the mortality at 0.1 ppm turned out to be 60%.
On to `CON1C(=O)C(c2c(C)cc(C)cc2C)=C(OC(=O)CC(C)(C)C)C1(C)C`, for which the mortality at 10 ppm with Nilaparvata lugens [1] was 90%; with Nilaparvata lugens [2] it was 90%; with Myzus persicae [6], 30%. For the same compound, the values for the Phytotoxicity in the data set on Oryza sativa and with Cucumis sativus were 30% and 60%, respectively. The mortality at 1 ppm in the data set on Nilaparvata lugens [3] worked out at 90%; with Nilaparvata lugens [4], 30%; with Myzus persicae [5] it was 0%; in the data set on Myzus persicae [7], 0%. Also, the mortality at 0.1 ppm with Myzus persicae [8] was determined as 0%.
As to `Cc1cc(C)c(C2=C(OC(=O)CC(C)(C)C)C(C)(C)N(O)C2=O)c(C)c1`, the mortality at 10 ppm worked out at 90% in the data set on Nilaparvata lugens [1], 100% in the data set with Nilaparvata lugens [2] and 0% in the data set with Myzus persicae [6]. The Phytotoxicity is recorded as 30% with Oryza sativa and 0% with Cucumis sativus. In addition, the mortality at 1 ppm came to 90% in the data set on Nilaparvata lugens [3], 60% with Nilaparvata lugens [4], 0% in the data set on Myzus persicae [5] and 0% in the data set with Myzus persicae [7]. In the data set on Myzus persicae [8], the mortality at 0.1 ppm was found to be 0%.
As to `Cc1cc(C)c(C2=C(O)C(C)(C)N(OCC3CCCCC3)C2=O)c(C)c1`, the mortality at 10 ppm amounted to 60% in the data set with Nilaparvata lugens [1], 90% in the data set on Nilaparvata lugens [2] and 0% with Myzus persicae [6]. Further, the values for the Phytotoxicity with Oryza sativa and in the data set with Cucumis sativus were 60% and 0%, respectively. Also, the mortality at 1 ppm in the data set with Nilaparvata lugens [3] was determined as 30%; with Nilaparvata lugens [4] it was 60%; with Myzus persicae [5] it was 0%; in the data set on Myzus persicae [7] it was 60%. For the same compound, the mortality at 0.1 ppm with Myzus persicae [8] was found to be 0%.
As to `Cc1cc(C)c(C2=C(O)C(C)(C)N(OC(C)C)C2=O)c(C)c1`, the mortality at 10 ppm is 90% in the data set on Nilaparvata lugens [1], 60% in the data set on Nilaparvata lugens [2] and 0% in the data set with Myzus persicae [6]. The figures for the Phytotoxicity in the data set with Oryza sativa and in the data set with Cucumis sativus were 100% and 0%, respectively. Further, the mortality at 1 ppm came to 30% in the data set with Nilaparvata lugens [3], 30% in the data set on Nilaparvata lugens [4], 0% in the data set on Myzus persicae [5] and 60% in the data set with Myzus persicae [7]. In addition, the mortality at 0.1 ppm in the data set on Myzus persicae [8] amounted to 0%.
In the case of `CCCON1C(=O)C(c2c(C)cc(C)cc2C)=C(O)C1(C)C`, the mortality at 10 ppm with Nilaparvata lugens [1] came out at 100%; in the data set with Nilaparvata lugens [2], 100%; in the data set on Myzus persicae [6], 30%. The Phytotoxicity with Oryza sativa was determined as 100%; with Cucumis sativus it was 0%. Moreover, the mortality at 1 ppm was 30% in the data set with Nilaparvata lugens [3], 60% in the data set with Nilaparvata lugens [4], 0% with Myzus persicae [5] and 90% in the data set on Myzus persicae [7]. Further, in the data set with Myzus persicae [8], the mortality at 0.1 ppm was 90%.
In the case of `COCCOCON1C(=O)C(c2c(C)cc(C)cc2C)=C(O)C1(C)C`, the mortality at 10 ppm with Nilaparvata lugens [1] amounted to 100%; in the data set with Nilaparvata lugens [2], 60%; in the data set with Myzus persicae [6], 90%. Also, the Phytotoxicity in the data set on Oryza sativa and with Cucumis sativus was 100% in each case. For the same compound, the mortality at 1 ppm in the data set on Nilaparvata lugens [3] was 30%; with Nilaparvata lugens [4] it was 30%; in the data set with Myzus persicae [5], 0%; in the data set with Myzus persicae [7], 100%. The mortality at 0.1 ppm with Myzus persicae [8] was 100%.
